Among the data in US8343983B2, “Substituted pyrazolo-pyrimidine compounds” (ArQule, Inc., priority 2009, dated 2013) are inhibition values, retold here.

This assay relates to cancer cells. The experiment in a line: MTS assay: inhibition of cell growth (formazan absorbance at 492 nm after 72 hours with test compound). The assay is classed as cell-based. As to conditions: inhibition class. The essentials: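 DMEM with 1% FBS; cells seeded at 3000/well and grown 18 h at 37 °C, then exposed to compound for 72 h and to MTS/PMS for 4 h. IC50 is the concentration giving a 50% absorbance drop; grades are % inhibition bands.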
Background: Formazan colour is commonly taken as a measure of viable cells.

Where [1] appears, read: Homo sapiens, DLD-1 cells, read-out: DLD-1, MTS 72 hours at 10 uM.
Setting [2] is: Homo sapiens, KATO III cells, read-out: KATO III, MTS 72 hours at 10 uM.
Setting [3] is: Homo sapiens, MDA-MB-231 cells, read-out: MDA-MB-231, MTS 72 hours at 10 uM.
[4] abbreviates: Homo sapiens, NCI-H1299 cells, read-out: NCI-H1299, MTS 72 hours at 10 uM.
[5] abbreviates: Homo sapiens, PC-3 cells, read-out: PC-3, MTS 72 hours at 10 uM.
Setting [6] is: PACA-2 cells, read-out: PACA-2, MTS 72 hours at 10 uM.

Molecules are shown by their SMILES. Like-named read-outs stand apart in the source and are kept apart here.

Consider `COc1ccc(CN2CCc3n[nH]c4nc(NCc5cccc(F)c5)nc2c34)cc1` [Compound 113, N-(3-fluorobenzyl)-6-(4-methoxybenzyl)-2,6,7,8-tetrahydro-1,2,3,5,6-pentaazaacenaphthylen-4-amine], for which the inhibition at 10 µM is, setting by setting: under setting [1], more than 79%; under setting [2], less than 50%; under setting [3], 50 to 79%; under setting [4], less than 50%; under setting [5], more than 79%; under setting [6], more than 79%.

In the case of `COc1ccc(CN2CCc3n[nH]c4nc(N5CCN(Cc6ccccc6)CC5)nc2c34)cc1` [Compound 114, 4-(4-benzylpiperazin-1-yl)-6-(4-methoxybenzyl)-2,6,7,8-tetrahydro-1,2,3,5,6-pentaazaacenaphthylene], the inhibition at 10 µM under setting [1] was less than 50%; the inhibition at 10 µM under setting [2] was less than 50%; the inhibition at 10 µM under setting [3] was less than 50%; the inhibition at 10 µM under setting [4] is less than 50%; the inhibition at 10 µM under setting [5] is less than 50%; the inhibition at 10 µM under setting [6] was less than 50%.

Regarding `COc1ccc(CN2CCc3n[nH]c4nc(NCCc5c[nH]c6ccc(Cl)cc56)nc2c34)cc1` [Compound 115, N-[2-(5-chloro-1H-indol-3-yl)ethyl]-6-(4-methoxybenzyl)-2,6,7,8-tetrahydro-1,2,3,5,6-pentaazaacenaphthylen-4-amine], the inhibition at 10 µM reads like this: under setting [1], more than 79%; under setting [2], more than 79%; under setting [3], more than 79%; under setting [4], more than 79%; under setting [5], more than 79%; under setting [6], more than 79%.

As for `COc1ccc(CN2CCc3n[nH]c4nc(NCCc5ccccc5)nc2c34)cc1` [Compound 116, 6-(4-methoxybenzyl)-N-(2-phenylethyl)-2,6,7,8-tetrahydro-1,2,3,5,6-pentaazaacenaphthylen-4-amine], the inhibition at 10 µM is, setting by setting: under setting [1], more than 79%; under setting [2], more than 79%; under setting [3], more than 79%; under setting [4], more than 79%; under setting [5], more than 79%; under setting [6], more than 79%.

Consider `COc1ccc(CN2CCc3n[nH]c4nc(NCc5ccc(Cl)cc5)nc2c34)cc1` [Compound 117, N-(4-chlorobenzyl)-6-(4-methoxybenzyl)-2,6,7,8-tetrahydro-1,2,3,5,6-pentaazaacenaphthylen-4-amine], for which the inhibition at 10 µM under setting [1] was in the range of 50 to 79%; the inhibition at 10 µM under setting [2] was less than 50%; the inhibition at 10 µM under setting [3] lay in the range of 50 to 79%; the inhibition at 10 µM under setting [4] lay within 50 to 79%; the inhibition at 10 µM under setting [5] is less than 50%; the inhibition at 10 µM under setting [6] is less than 50%.

On to `COc1ccc(CN2CCc3n[nH]c4nc(Nc5ccccc5)nc2c34)cc1` [Compound 118, 6-(4-methoxybenzyl)-N-phenyl-2,6,7,8-tetrahydro-1,2,3,5,6-pentaazaacenaphthylen-4-amine], for which the inhibition at 10 µM by setting is: under setting [1], less than 50%; under setting [2], less than 50%; under setting [3], less than 50%; under setting [4], less than 50%; under setting [5], less than 50%; under setting [6], less than 50%.

As for `COc1ccc(CN2CCc3n[nH]c4nc(Nc5ccc(N6CCN(C(=O)OCc7ccccc7)CC6)cc5)nc2c34)cc1` [Compound 119, benzyl 4-(4-{[6-(4-methoxybenzyl)-2,6,7,8-tetrahydro-1,2,3,5,6-pentaazaacenaphthylen-4-yl]amino}phenyl)piperazine-1-carboxylate], the inhibition at 10 µM runs as follows: under setting [1], more than 79%; under setting [2], more than 79%; under setting [3], more than 79%; under setting [4], 50 to 79%; under setting [5], 50 to 79%; under setting [6], 50 to 79%.

With `COc1ccc(CN2CCc3n[nH]c4nc(Nc5ccc(N6CCN(C)CC6)cc5)nc2c34)cc1` [Compound 120, 6-(4-methoxybenzyl)-N-[4-(4-methylpiperazin-1-yl)phenyl]-2,6,7,8-tetrahydro-1,2,3,5,6-pentaazaacenaphthylen-4-amine], the inhibition at 10 µM was more than 79% under setting [1]; more than 79% under setting [2]; more than 79% under setting [3]; 50 to 79% under setting [4]; more than 79% under setting [5]; more than 79% under setting [6].

As to `c1cncc(CNc2nc3c4c(n[nH]c4n2)CCN3)c1` [Compound 121, N-(pyridin-3-ylmethyl)-2,6,7,8-tetrahydro-1,2,3,5,6-pentaazaacenaphthylen-4-amine], the inhibition at 10 µM runs as follows: under setting [1], less than 50%; under setting [2], less than 50%; under setting [3], less than 50%; under setting [4], less than 50%; under setting [5], less than 50%; under setting [6], less than 50%.

On to `c1cc(N2CCN(c3nc4c5c(n[nH]c5n3)CCN4)CC2)ccn1` [Compound 122, 4-(4-pyridin-4-ylpiperazin-1-yl)-2,6,7,8-tetrahydro-1,2,3,5,6-pentaazaacenaphthylene], for which the inhibition at 10 µM runs as follows: under setting [1], less than 50%; under setting [2], less than 50%; under setting [3], less than 50%; under setting [4], less than 50%; under setting [5], less than 50%; under setting [6], less than 50%.

On to `C1CCC(Nc2nc3c4c(n[nH]c4n2)CCN3)CC1` [Compound 123, N-cyclohexyl-2,6,7,8-tetrahydro-1,2,3,5,6-pentaazaacenaphthylen-4-amine], for which the inhibition at 10 µM was less than 50% under setting [1]; less than 50% under setting [2]; less than 50% under setting [3]; less than 50% under setting [4]; less than 50% under setting [5]; less than 50% under setting [6].

`Fc1ccc(CCNc2nc3c4c(n[nH]c4n2)CCN3)cc1` [Compound 124, N-[2-(4-fluorophenyl)ethyl]-2,6,7,8-tetrahydro-1,2,3,5,6-pentaazaacenaphthylen-4-amine]: the inhibition at 10 µM was less than 50% under setting [1]; less than 50% under setting [2]; less than 50% under setting [3]; less than 50% under setting [4]; less than 50% under setting [5]; 50 to 79% under setting [6].

For `C1Cc2n[nH]c3nc(N4CCOCC4)nc(c23)N1` [Compound 125, 4-morpholin-4-yl-2,6,7,8-tetrahydro-1,2,3,5,6-pentaazaacenaphthylene], the inhibition at 10 µM by setting is: under setting [1], less than 50%; under setting [2], less than 50%; under setting [3], less than 50%; under setting [4], less than 50%; under setting [5], less than 50%; under setting [6], less than 50%.

Consider `CN1CCC(Nc2nc3c4c(n[nH]c4n2)CCN3)CC1` [Compound 126, N-(1-methylpiperidin-4-yl)-2,6,7,8-tetrahydro-1,2,3,5,6-pentaazaacenaphthylen-4-amine], for which the inhibition at 10 µM under setting [1] is less than 50%; the inhibition at 10 µM under setting [2] was less than 50%; the inhibition at 10 µM under setting [3] was less than 50%; the inhibition at 10 µM under setting [4] is less than 50%; the inhibition at 10 µM under setting [5] is less than 50%; the inhibition at 10 µM under setting [6] was less than 50%.

For `Fc1cccc(CNc2nc3c4c(n[nH]c4n2)CCN3)c1` [Compound 127, N-(3-fluorobenzyl)-2,6,7,8-tetrahydro-1,2,3,5,6-pentaazaacenaphthylen-4-amine], the inhibition at 10 µM runs as follows: under setting [1], more than 79%; under setting [2], more than 79%; under setting [3], more than 79%; under setting [4], 50 to 79%; under setting [5], more than 79%; under setting [6], more than 79%.

Turning to `c1ccc(CCNc2nc3c4c(n[nH]c4n2)CCN3)cc1` [Compound 128, N-(2-phenylethyl)-2,6,7,8-tetrahydro-1,2,3,5,6-pentaazaacenaphthylen-4-amine], the inhibition at 10 µM is more than 79% under setting [1]; more than 79% under setting [2]; more than 79% under setting [3]; more than 79% under setting [4]; more than 79% under setting [5]; more than 79% under setting [6].

For `COc1ccc(CN2CCc3nn(Cc4ccccc4)c4nc(SC)nc2c34)cc1` [Compound 129, 2-benzyl-6-(4-methoxybenzyl)-4-(methylsulfanyl)-2,6,7,8-tetrahydro-1,2,3,5,6-pentaazaacenaphthylene], the inhibition at 10 µM is, setting by setting: under setting [1], less than 50%; under setting [2], less than 50%; under setting [3], less than 50%; under setting [4], less than 50%; under setting [5], less than 50%; under setting [6], less than 50%.

Regarding `COc1ccc(CN2CCc3nn(C)c4nc(SC)nc2c34)cc1` [Compound 130, 6-(4-methoxybenzyl)-2-methyl-4-(methylsulfanyl)-2,6,7,8-tetrahydro-1,2,3,5,6-pentaazaacenaphthylene], the inhibition at 10 µM is less than 50% under setting [1]; less than 50% under setting [2]; less than 50% under setting [3]; less than 50% under setting [4]; less than 50% under setting [5]; 50 to 79% under setting [6].

Take `CSc1nc2c3c(nn(Cc4ccccc4)c3n1)CCN2Cc1ccccc1` [Compound 133, 2,6-dibenzyl-4-(methylsulfanyl)-2,6,7,8-tetrahydro-1,2,3,5,6-pentaazaacenaphthylene]: the inhibition at 10 µM is, setting by setting: under setting [1], more than 79%; under setting [2], more than 79%; under setting [3], more than 79%; under setting [4], more than 79%; under setting [5], more than 79%; under setting [6], more than 79%.
